# Read-outs that look alike come from different tables or passages of the source. Marks after values point to notes of the source that are not given here.
# Tests used:
# HT29 colon cancer cells [1] = system: HT29 colon cancer cells; set-up: method as in PMID 21450266, PMID 20200702, PMID 20422091; conditions: HT29, 72 h; cited from earlier work
# [2] = system: A2780 ovarian cancer cells; set-up: method as in PMID 21450266, PMID 20200702, PMID 20422091; conditions: A2780, 72 h; cited from earlier work
# [3] = system: MDAMB231 triple-negative breast cancer cells; set-up: method as in PMID 21450266, PMID 20200702, PMID 20422091; conditions: MDAMB231, 72 h; cited from earlier work
# Solubility in water = assay type: physicochemical; conditions: in presence of air, 25 °C
# [4] = Stability in water in presence of air (UV-vis, 1H and 31P NMR); assay type: physicochemical; conditions: for Stability in water, Time / Stability in water, Time (Days): in presence of air, 25 °C, time without hydrolysis
# Description: The stability of all the complexes in water was evaluated by ^31P NMR and UV–visible spectroscopies. Generally, a 5 mm NMR tube was charged in the air with the 10 mg of each complex and D2O (0.8 mL). ^1H NMR and ^31P NMR were monitored for four days to evaluate if there was any decomposition product. Decomposition/instability of the compound can be assessed by the disappearance of the NMR signals and/or by the appearance of new signals that could not be assigned to the known complex, beyond the appearance of free mTPPMS phosphine signals. Any eventual changes in the charge transfer bands between ruthenium and ligands were followed by UV–visible in the 300–900 nm range.
# [5] = n-Octanol/water partition coefficient, shake-flask method; assay type: physicochemical; conditions: room temperature
# Description: The lipophilicity of the complexes was measured by the shake-flask method. Distilled water and n-octanol were mixed vigorously for 24 h at 25 °C, to promote solvent saturation in both phases, before the experiments. […] Aliquots of stock solutions were equilibrated with octanol for 4 h in a mechanical shaker. The phase ratio was 2 mL/2 mL (water/n-octanol). The aqueous and octanol layers were carefully separated (by centrifugation at 5000 rpm for 10 min), and UV–vis absorption spectra of the compounds were registered in both phases. The concentration for each sample was determined using the calibration curve. Triplicate experiments have been performed for each complex and the averages were calculated.
# HT29 colon cancer cells [6] = assay: MTT cytotoxicity assay, HT29; assay type: cell-based, human; conditions: HT29, 72 h; for IC50: mean ± SD n = 3
# Description: (§1) The cytotoxic activity of all complexes was screened against A2780 (ovarian, Sigma-Aldrich, Lisboa, Portugal), MDAMB231 (breast, triple negative, ATCC), and HT29 (colon, ATCC) human cancer cells. Cells were grown in RPMI 1640 (A2780) or DMEM containing GlutaMax-I (MDAMB231), or McCoy’s (HT29) supplemented with 10% FBS and 1% penicillin/streptomycin (Invitrogen, Lisboa, Portugal). All cell lines were kept in a CO2 incubator (Heraeus, Hanau, Germany) with 5% CO2 at 37 °C in a humidified atmosphere. Cell viability was measured using the colorimetric MTT (3-(4,5-dimethylthiazol-2-yl)-2,5-diphenyltetrazolium bromide) assay. For the assays, cells were seeded in 200 μL of complete medium in 96-well plates and incubated at 37 °C for 24 h prior to complex treatment to allow cell adherence. The stock solutions in water (20 mM) of the complexes were freshly prepared and used for sequential dilutions in medium within the concentration range of 10^−10–10^−4 M. Cisplatin was also included in this study as a positive control. After careful removal of the medium, […] of a serial dilution of compounds in fresh medium was added to the cells, and incubation was carried out for 72 h at 37 °C. At the end of the treatment, the medium was discarded, and the cells were incubated with […] of an MTT solution in PBS (0.5 mg mL^−1). After 3 h incubation, medium was removed, and DMSO was added to solubilize the purple formazan crystals formed. The absorbance at 570 nm was measured using a plate spectrophotometer (Power Wave Xs, Bio-Tek, Winooski, VT, USA). Each experiment was repeated at least three times and each concentration tested in at least six replicates. The IC50 values were calculated from dose–response curves analyzed with the GraphPad Prism software (version 5.0).
# [7] = system: MDAMB231 triple-negative breast cancer cells; assay: MTT cytotoxicity assay, MDAMB231; assay type: cell-based, human; conditions: MDAMB231, 72 h; for IC50: mean ± SD n = 3
# Description: as §1
# [8] = system: A2780 ovarian cancer cells; assay: MTT cytotoxicity assay, A2780; assay type: cell-based, human; conditions: A2780, 72 h, mean ± SD n = 3
# Description: as §1
compound,measurement,setting,value
"N.N.[Cl][Pt][Cl] [CisPt, Cisplatin]",IC50,HT29 colon cancer cells [1],7 ± 2 µM
same,IC50,[2],1.9 ± 0.1 µM
same,IC50,[3],39 ± 5 µM
"O=S(=O)([O-])C(F)(F)F.O=S(=O)([O-])c1cccc(P(c2ccccc2)c2ccccc2)c1.O=S(=O)([O-])c1cccc(P(c2ccccc2)c2ccccc2)c1.[Na+].[Na+].[Ru+2].c1c[nH]cn1.c1cc[cH-]c1 [Compound 1, [RuCp(mTPPMSNa)2(ImH)][CF3SO3]]",S(H2O),Solubility in water,21.4 mg/mL
"NCCCn1ccnc1.O=S(=O)([O-])C(F)(F)F.O=S(=O)([O-])c1cccc(P(c2ccccc2)c2ccccc2)c1.O=S(=O)([O-])c1cccc(P(c2ccccc2)c2ccccc2)c1.[Na+].[Na+].[Ru+2].c1cc[cH-]c1 [Compound 4, [RuCp(mTPPMSNa)2(3-ApIm)][CF3SO3]]",S(H2O),Solubility in water,48.6 mg/mL
same,S(H2O),Solubility in water; value in brackets,0.049 M
same,Time stable in water,[4]; aqueous solution,24 h
same,"Stability in water, Time",[4],1 days
same,Log Po/w,[5],4.43 ± 0.03
"COc1ccc(-n2ccnc2)cc1.O=S(=O)([O-])C(F)(F)F.O=S(=O)([O-])c1cccc(P(c2ccccc2)c2ccccc2)c1.O=S(=O)([O-])c1cccc(P(c2ccccc2)c2ccccc2)c1.[Na+].[Na+].[Ru+2].c1cc[cH-]c1 [Compound 5, [RuCp(mTPPMSNa)2(4-MpIm)][CF3SO3]]",S(H2O),Solubility in water,28.8 mg/mL
same,S(H2O),Solubility in water; value in brackets,0.029 M
same,"Stability in water, Time",[4],0.12 days
[RuCp(mTPPMSNa)2(1-BI)][CF3SO3] [Compound 2],S(H2O),Solubility in water,38.6 mg/mL
same,S(H2O),Solubility in water; value in brackets,0.039 M
same,"Stability in water, Time",[4],0.25 days
[RuCp(mTPPMSNa)2(1-BuIm)][CF3SO3] [Compound 3],S(H2O),Solubility in water,42.8 mg/mL
same,S(H2O),Solubility in water; value in brackets,0.043 M
same,"Stability in water, Time",[4],0.12 days
[RuCp(mTPPMSNa)(dpk)][CF3SO3] [Compound 7],Cytotoxicity (in words),HT29 colon cancer cells [6],not cytotoxic
same,IC50,HT29 colon cancer cells [6],> 100 µM
same,S(H2O),Solubility in water,19.3 mg/mL
same,S(H2O),Solubility in water; value in brackets,0.019 M
same,Cytotoxicity (in words),[7],not cytotoxic
same,IC50,[7],> 100 µM
same,Changes in the UV–vis spectra in aqueous solution,[4]; over 4 days at 37 °C,insignificant
same,"Stability in water, Time (Days)",[4],>4 ^[b] Days
same,Log Po/w,[5],5.95 ± 0.07
same,IC50,[8],0.45 ± 0.3 µM
[RuCp(mTPPMSNa)(pbt)][CF3SO3] [Compound 8],IC50,HT29 colon cancer cells [6],11.3 ± 2.4 µM
same,S(H2O),Solubility in water,20.0 mg/mL
same,S(H2O),Solubility in water; value in brackets,0.02 M
same,IC50,[7],25.4 ± 5 µM
same,Stability in water by NMR (in words),"[4]; D2O, 4 days, UV–vis bands decrease due to precipitation",remained intact without the formation of new species
same,"Stability in water, Time (Days)",[4],">4 ^[b,c] Days"
same,IC50,[8],0.2 ± 0.08 µM
